Measurements reported in patent US20230091336A1, “CANNABINOID COMPOSITIONS” (priority 2020, published 2023).
Read-outs that look alike come from different tables or passages of the source.

Tests used:
SOCE in Jurkat T cells = assay: SOCE Fura-2 bioassay in Jurkat cells; format: cell-based, human; details: for combinatory effect on SOCE inhibition when paired with CBGA (isobolographic analysis): pairs expected to inhibit 50%, FIGS. 10A-10T; for effect on SOCE Ca^2+ signals, pure compounds: 10 μM, 1 μM thapsigargin, FIG. 7A, 7C
[1] = tested on: SOCE in RBL-2H3 rat mast cells; assay: SOCE Fura-2 bioassay in RBL-2H3 cells; details: Table 5
Description: (§1) Briefly, SOCE inhibition experiments were performed as described in Example 8, using each of the hemp extracts listed below and in Tables 6A and 6B at six concentrations each in each of the five cell types listed above to obtain dose response curves, as shown in FIGS. 11A-11SS. […] All data are averages of three independent runs±SEM. […] Hemp extracts used in FIGS. 11A-11SS are: Sour Space Candy (SSC), Hawaiian Haze (HH), Special Sauce (SS), Suver Haze (SH), White CBG (WCBG), Elektra (ELEK), Cherry Wine (CW), Lifter (LIF), Grape Soda (GS).

[2] = tested on: SOCE in THP-1 human monocytes; assay: SOCE Fura-2 bioassay in THP-1 cells; details: for combinatory effect on SOCE inhibition when paired with CBGA (isobolographic analysis): pairs expected to inhibit 50%, FIGS. 10U-10Y; for combinatory effect when paired with 2.2 μM CBGA: 10 μM cannabinoid + 2.2 μM CBGA, FIG. 10Z
[3] = tested on: SOCE in U937 human monocytes; assay: SOCE Fura-2 bioassay in U937 cells; details: Table 5
Description: as §1

[4] = tested on: SOCE in HEK-293 human embryonic kidney cells; assay: SOCE Fura-2 bioassay in HEK293 cells; format: cell-based; details: for IC50: Table 5; for inhibitory effect in immune cells compared with non-immune HEK293 cells: 10 μM, HEK293 (FIG. 8) vs immune cells
[5] = tested on: SOCE in Luva human mast cells; assay: SOCE Fura-2 bioassay in Luva cells; details: Table 5
Description: as §1

[6] = Homo sapiens, read-out: IC50 SOCE, purified cannabinoids, Jurkat, Table 5
[7] = Rattus norvegicus, RBL-2H3, read-out: IC50 SOCE, purified cannabinoids, RBL-2H3
[8] = Homo sapiens, THP-1, read-out: IC50 SOCE, purified cannabinoids
[9] = Homo sapiens, U-937, read-out: IC50 SOCE, purified cannabinoids, U937
[10] = Homo sapiens, HEK293, read-out: IC50 SOCE, purified cannabinoids, HEK-293
[11] = Homo sapiens, Mast cell, read-out: IC50 SOCE, purified cannabinoids, Luva

Compound	IC50 (SOCE in Jurkat T cells; [6])	combinatory effect on SOCE inhibition when paired with CBGA (isobolographic analysis) (SOCE in Jurkat T cells)	IC50 [1, 7]	IC50 [2, 8]	IC50 [3, 9]	IC50 [4, 10]	IC50 [5, 11]	inhibitory effect in immune cells compared with non-immune HEK293 cells [4]	effect on SOCE Ca^2+ signals, pure compounds (SOCE in Jurkat T cells)	combinatory effect on SOCE inhibition when paired with CBGA (isobolographic analysis) ([2]; THP-1)	IC50 (SOCE in Jurkat T cells; read-out: IC50 SOCE, purified cannabinoids, Table 5)	IC50 ([1]; read-out: IC50 SOCE, purified cannabinoids, RBL-2H3)	IC50 ([2]; read-out: IC50 SOCE, purified cannabinoids, THP-1, Table 5)	IC50 ([3]; read-out: IC50 SOCE, purified cannabinoids, U937)	IC50 ([4]; read-out: IC50 SOCE, purified cannabinoids, HEK-293)	IC50 ([5]; read-out: IC50 SOCE, purified cannabinoids, Luva)	combinatory effect when paired with 2.2 μM CBGA ([2]; THP-1)
CCCCCc1cc(O)c2c(c1)O[C@]1(C)CC[C@@H]3C1[C@@H]2C3(C)C (stereo partly drawn) [CBL, (1aS,1a1R,3aR,8bR)-1,1,3a-trimethyl-6-pentyl-1a,1a1,2,3,3a,8b-hexahydro-1H-4-oxabenzo[f]cyclobuta[cd]inden-8-ol]	> 50 µM	Simple additive	> 50 µM	> 50 µM	> 50 µM	> 50 µM	> 50 µM	–	–	–	–	–	–	–	–	–	–
C=C(C)[C@@H]1CCC(C)=C[C@H]1c1c(O)cc(CCC)cc1O [CBDV, (1′R,2′R)-5′-methyl-2′-(prop-1-en-2-yl)-4-propyl-1′,2′,3′,4′-tetrahydro-[1,1′-biphenyl]-2,6-diol]	6 µM	sub-additive	30.2 µM	> 50 µM	17.5 µM	17.8 µM	0.17 µM	selective	–	–	–	–	–	–	–	–	–
CCCCCc1cc(O)c2c(c1)OC(C)(C)[C@@H]1CCC(C)=C[C@@H]21 [Δ9-THC, (6aR,10aR)-6,6,9-trimethyl-3-pentyl-6a,7,8,10a-tetrahydro-6H-benzo[c]chromen-1-ol]	> 50 µM	–	> 50 µM	> 50 µM	> 50 µM	> 50 µM	0.97 µM	–	low to no effects	–	–	–	–	–	–	–	–
CCCCCc1cc(OC)c2c(c1)OC(C)(C)c1ccc(C)cc1-2 [CBNM, 1-methoxy-6,6,9-trimethyl-3-pentyl-6H-benzo[c]chromene]	> 50 µM	–	> 50 µM	> 50 µM	> 50 µM	> 50 µM	> 50 µM	–	–	–	–	–	–	–	–	–	–
CCCCCc1cc(O)c2c(c1)OC(C)(C)[C@@H]1CCC(C(=O)O)=C[C@@H]21 [11-COOH-Δ9-THC, (6aR,10aR)-1-hydroxy-6,6-dimethyl-3-pentyl-6a,7,8,10a-tetrahydro-6H-benzo[c]chromene-9-carboxylic acid]	–	–	–	–	–	–	–	selective	–	–	–	–	–	–	–	–	–
CCCCCc1cc2c(c(O)c1C(=O)O)[C@@H]1[C@H]3C(CC[C@@]3(C)O2)C1(C)C (stereo partly drawn) [CBLA, (1aS,1a1R,3aR,8bR)-8-hydroxy-1,1,3a-trimethyl-6-pentyl-1a, 1a1,2,3,3a, 8b-hexahydro-1H-4-oxabenzo[f]cyclobuta[cd]indene-7-carboxylic acid]	9.29 µM	sub-additive	> 50 µM	12.4 µM	28.3 µM	31.1 µM	20.9 µM	–	–	–	–	–	–	–	–	–	–
CCCCCc1cc2c(c(O)c1C(=O)O)[C@@H]1C=C(C)CC[C@H]1C(C)(C)O2 [THCA, (6aR, 10aR)-1-hydroxy-6,6,9-trimethyl-3-pentyl-6a,7,8,10a-tetrahydro-6H-benzo[c]chromene-2-carboxylic acid]	2.23 µM	Simple additive	17.5 µM	10.4 µM	8.1 µM	20.7 µM	0.57 µM	–	fully block the Ca^2+ signals	sub-additive	–	–	–	–	–	–	–
CCCc1cc(O)c2c(c1)OC(C)(C)[C@@H]1CCC(C)=C[C@@H]21 [THCV, trimethyl-3-propyl-6a,7,8,10a-tetrahydro-6H-benzo[c]chromen-1-ol]	10.7 µM	–	> 50 µM	> 50 µM	> 50 µM	> 50 µM	> 50 µM	–	–	–	–	–	–	–	–	–	–
CCCCCc1cc(O)c2c(c1)OC(C)(CCC=C(C)C)C=C2 (stereo not shown) [CBC, 2-methyl-2-(4-methylpent-3-en-1-yl)-7-pentyl-2H-chromen-5-ol]	–	–	–	–	–	–	–	–	–	–	13.1 µM	31.6 µM	> 50 µM	40.8 µM	18.7 µM	26.8 µM	–
CCCCCc1cc(O)c(C/C=C(\C)CCC=C(C)C)c(O)c1 [CBG, (E)-2-(3,7-dimethylocta-2,6-dien-1-yl)-5-penlylbenzene-1,3-diol]	2.36 µM	supra-additive	> 50 µM	33.6 µM	33.5 µM	> 50 µM	3.29 µM	–	–	–	–	–	–	–	–	–	simple additive agonists
CCCCCc1cc(O)c2c(c1)OC(C)(C)c1ccc(C)cc1-2 [CBN, 6,6,9-trimethyl-3-pentyl-6H-benzo[c]chromen-1-ol]	9.09 µM	Simple additive	42.6 µM	> 50 µM	45.3 µM	26.9 µM	33.4 µM	–	–	–	–	–	–	–	–	–	simple additive agonists
CCCCCc1cc(O)c2c(c1)OC(C)(C)[C@@H]1CC=C(C)C[C@@H]21 [Δ8-THC, (6aR,10aR)-6,6,9-trimethyl-3-pentyl-6a,7,10,10a-tetrahydro-6H-benzo[c]chromen-1-ol]	14.2 µM	sub-additive	> 50 µM	> 50 µM	> 50 µM	> 50 µM	39.7 µM	–	–	–	–	–	–	–	–	–	sub-additive
CCCc1cc(O)c(C/C=C(\C)CCC=C(C)C)c(O)c1C(=O)O [CBGVA, (E)-3-(3,7-dimethylocta-2,6-dien-1-yl)-2,4-dihydroxy-6-propylbenzoic acid]	1.15 µM	Simple additive	4.15 µM	2.6 µM	2.86 µM	2.11 µM	2.53 µM	–	–	sub-additive	–	–	–	–	–	–	–
CCCc1cc(O)c(C/C=C(\C)CCC=C(C)C)c(O)c1 [CBGV, (E)-2-(3,7-dimethylocta-2,6-dien-1-yl)-5-propylbenzene-1,3-diol]	5.27 µM	supra-additive	30.9 µM	40.7 µM	14.5 µM	9.16 µM	6.46 µM	–	–	–	–	–	–	–	–	–	simple additive agonists
CCCCCc1cc2c(c(O)c1C(=O)O)C=C[C@@](C)(CCC=C(C)C)O2 [CBCA, (R)-5-hydroxy-2-methyl-2-(4-methylpent-3-en-1-yl)-7-pentyl-2H-chromene-6-carboxylic acid]	1.13 µM	Simple additive	> 50 µM	29.1 µM	> 50 µM	> 50 µM	> 50 µM	–	–	–	–	–	–	–	–	–	–
CCCCCc1cc2c(c(O)c1C(=O)O)-c1cc(C)ccc1C(C)(C)O2 [CBNA, 1-hydroxy-6,6,9-trimethyl-3-pentyl-6H-benzo[c]chromene-2-carboxylic acid]	0.99 µM	Simple additive	22.5 µM	7.25 µM	19.2 µM	29.5 µM	> 50 µM	–	–	sub-additive	–	–	–	–	–	–	–
C=C(C)[C@@H]1CCC(C)=C[C@H]1c1c(O)cc(CCCCC)c(C(=O)O)c1O [CBDA, (1′R,2′R)-2,6-dihydroxy-5′-methyl-4-penlyl-2′-(prop-1-en-2-yl)-1′,2′,3′,4′-tetrahydro-[1,1′-biphenyl]-3-carboxylic acid]	4.07 µM	sub-additive	16.1 µM	5.17 µM	5.83 µM	26.9 µM	2.4 µM	selective	fully block the Ca^2+ signals	sub-additive	–	–	–	–	–	–	–
C=C(C)[C@@H]1CCC(C)=C[C@H]1c1c(O)cc(CCC)c(C(=O)O)c1O [CBDVA, (1′R,2′R)-2,6-dihydroxy-5′-methyl-2′-(prop-1-en-2-yl)-4-propyl-1′,2′,3′,4′-tetrahydro-[1,1′-biphenyl]-3-carboxylic acid]	11.3 µM	sub-additive	23.5 µM	8.45 µM	10.6 µM	20.7 µM	11.3 µM	–	–	–	–	–	–	–	–	–	–
C=C(C)c1ccc(C)cc1-c1c(O)cc(CCCCC)cc1O [CBND, 5′-methyl-4-pentyl-2′-(prop-1-en-2-yl)-[1,1′ biphenyl]-2,6-diol]	6.7 µM	Simple additive	32.8 µM	> 50 µM	24 µM	21.4 µM	19 µM	–	–	–	–	–	–	–	–	–	–
